System: plasma adiponectin level
Assay: Plasma adiponectin level in REM sleep deprivation rat model (platform method), rat adiponectin ELISA
Assay type: in vivo
Conditions: SD rats, 30-hour REM sleep deprivation, oral 150 mg/kg thrice every 12 hours (300 mg/kg/day), vs. control group receiving distilled water, P<0.05 (Fisher's PLSD test)
Protocol: SD rats (male, 10 to 11 weeks old) were divided into groups, each containing rats with similar body weights. A cylindrical platform (diameter: 6.0 cm, height: 2.5 cm) on which a rat can take a rest was placed in a cage, and water was added to the cage so that the water level was adjusted to 1 cm below the top of the platform. Each rat was reared for one to four days in the cage (one rat/cage). Rats of a rest group were reared in cages each containing a common floorcloth (N=4 for each group). In a chlorogenic acid administration experiment, rats were reared in cages for 30-hour REM sleep deprivation. Rats of a chlorogenic acid (5-CQA, product of Sigma) administration group orally received chlorogenic acid thrice every 12 hours by means of a probe (dose: 150 mg/kg (300 mg/kg/day)). Rats of a control group received distilled water. Rats of a rest group were reared in cages each containing a common floorcloth, and received distilled water (N=6 for each group). […] The plasma adiponectin level was determined by means of a rat adiponectin ELISA kit (product of ADIPOGEN®). Specifically, plasma was 1,000-fold diluted with a dilution buffer contained in the kit, and then plasma adiponectin level was determined according to the kit protocol.

O=C(/C=C/c1ccc(O)c(O)c1)O[C@@H]1C[C@](O)(C(=O)O)C[C@@H](O)[C@H]1O [chlorogenic acid]
Effect on reduction in plasma adiponectin level caused by REM sleep deprivation: significantly suppressed a reduction in plasma adiponectin level

Reference: patent US8440464B2, “Method for evaluation or selection of adiponectin secretion regulator” (Kao Corporation, priority 2008, dated 2013)
